According to ChEMBL document CHEMBL3272309, “Potential central nervous system antitumor agents. Aziridinylbenzoquinones. 1” (J Med Chem, 1976):
The source made the active and inactive calls. The calls are words filed in the database; no cut-off is given here.

system: L1210; assay: Antitumor activity against mouse L1210 cells allografted in ip dosed mouse; format: functional, organism-based

With `CC(=O)NC1=C(Cl)C(=O)C(NC(C)=O)=C(Cl)C1=O` as the compound, how does the Activity read?
Its Activity is “inactive”.

For `CC(=O)NC1=C(N2CC2(C)C)C(=O)C(NC(C)=O)=C(N2CC2(C)C)C1=O`, which Activity is on record?
Its Activity is “inactive”.

How did the Activity turn out when `CCCSC1=C(N2CC2)C(=O)C(SCCC)=C(N2CC2)C1=O` was run?
Its Activity is “inactive”.

For `CCOC(=N)C1=C(Cl)C(=O)C(C(=N)OCC)=C(Cl)C1=O`, which Activity is on record?
Its Activity is “inactive”.

For `COC1=C(Br)C(=O)C(OC)=C(Br)C1=O`, which Activity is on record?
Its Activity is “inactive”.

Which Activity does the source give for `NC1=C(Cl)C(=O)C(N)=C(Cl)C1=O` here?
The Activity was “inactive”.

Which Activity does the source give for `O=C1C(Cl)=C(Cl)C(=O)C(Cl)=C1Cl` here?
The Activity was “inactive”.

For `O=C1C(Cl)=C(N2CC2)C(=O)C(Cl)=C1N1CC1`, which Activity is on record?
Its Activity is “inactive”.

system: L1210; assay: Antitumor activity against mouse L1210 cells allografted in ip dosed mouse administered qd on day 1, 5 and 9 relative to control; format: functional

Which T/C does the source give for `CCSC1=C(N2CC2)C(=O)C(SCC)=C(N2CC2)C1=O` here?
The T/C was 130%.

With `CC1(C)CN1C1=C(Br)C(=O)C(N2CC2(C)C)=C(Br)C1=O` as the compound, how does the Activity read?
Its Activity is “inactive”.

For `CC1(C)CN1C1=C(Cl)C(=O)C(N2CC2(C)C)=C(Cl)C1=O`, which Activity is on record?
Its Activity is “inactive”.

For `CC1CN1C1=C(Br)C(=O)C(N2CC2C)=C(Br)C1=O` (stereo not given), which Activity is on record?
Its Activity is “inactive”.

`CC1CN1C1=C(Cl)C(=O)C(N2CC2C)=C(Cl)C1=O` (stereo not given) was tested. Which Activity did it give?
Its Activity is “inactive”.

For `O=C1C(Br)=C(N2CC2)C(=O)C(Br)=C1N1CC1`, which Activity is on record?
The Activity was “inactive”.

`O=C1C(Cl)=C(N2CC2)C(=O)C(Cl)=C1N1CC1` was tested. Which Activity did it give?
Its Activity is “inactive”.
